Results reported in US9249098B2 (priority 2012, dated 2016).
Read-outs that look alike come from different tables or passages of the source.

How the values were obtained:
[1] = Acute toxicity in mice (LD50); conditions: both sexes, mouse, in vivo; CD-1 mice, dosed orally (PO), 7-day acute toxicity
Procedure: Animal toxicological tests. 7-day acute toxicity evaluation was done for selected compounds of this invention on mice and rats. Male and female CD-1 mice (25-30 grams) or SD rats (150-240 grams) were used. The animals were acclimated for 1 week prior to the experiment. The test compounds were dissolved in saline and were dosed orally (PO). Five groups (3 doses plus 1 vehicle and 1 naïve) and 10 mice per group (half male and half female) were used for each compound. All animals were fasted overnight before study. After dosing, animals were placed individually in soft-bedding cages without cage covers. Animal behavioral changes were continuously monitored for 4 hours including autonomic abnormalities (salivation, lacrimation, piloerection, yawning, palpebral closures), neuromuscular abnormalities (posture, gait, fasciculation, convulsions), stereotypical behaviors (sleep, alert, hyper/hypo-activity, slow patterned, fast patterned, restricted, dyskinetic-reactive signs etc.) and lethality. Observations for general health, mortality and moribundity were conducted twice daily after 24 hours. All animals surviving the 7-day observation period were sacrificed by carbon dioxide asphyxiation. Gross necropsies were performed on all animals sacrificed including examinations of main organs and tissue (lung, liver, kidney, heart, intestine, brain).
Acute toxicity for selected compounds of this invention was measured in mice according to the procedure illustrated in the embodiments. Male and female CD-1 mice (n=2-5/gender/compound dose, 25-32 grams) were from Shanghai Sino-British SIPPR/BK Lab Animal Ltd. Table 4 lists toxicology study observations for selected compounds.

[2] = target: T1, acetylcholinesterase (AChE) (Electrophorus electricus, UniProt O42275); experiment: biochemical; conditions: room temperature, pH 8, acetylthiocholine iodide substrate; read-out: IC50, inhibition of AChE enzyme activity
T1 construct: purchased Sigma C2888
T1 sequence (O42275 24-633): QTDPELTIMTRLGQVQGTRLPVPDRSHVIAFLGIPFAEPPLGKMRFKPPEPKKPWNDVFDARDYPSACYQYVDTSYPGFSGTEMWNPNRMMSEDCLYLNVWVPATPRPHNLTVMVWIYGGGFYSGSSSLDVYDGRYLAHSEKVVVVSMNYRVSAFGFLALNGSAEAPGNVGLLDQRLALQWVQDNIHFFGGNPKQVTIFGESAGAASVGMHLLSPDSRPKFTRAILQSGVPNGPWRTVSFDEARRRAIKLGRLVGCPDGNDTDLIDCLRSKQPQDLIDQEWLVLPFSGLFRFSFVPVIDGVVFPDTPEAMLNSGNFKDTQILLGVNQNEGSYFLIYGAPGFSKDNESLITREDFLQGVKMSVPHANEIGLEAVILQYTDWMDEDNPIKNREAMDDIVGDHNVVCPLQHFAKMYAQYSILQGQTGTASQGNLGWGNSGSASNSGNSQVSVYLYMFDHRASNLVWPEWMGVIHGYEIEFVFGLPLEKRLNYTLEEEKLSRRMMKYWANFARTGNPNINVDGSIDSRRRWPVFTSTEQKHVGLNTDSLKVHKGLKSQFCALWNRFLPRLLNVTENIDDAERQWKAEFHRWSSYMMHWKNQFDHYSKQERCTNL
Procedure: Enzymatic assay. […] The purified/synthesized compounds or compound mixtures were tested. Assay kit was from Invitrogen. AChE enzyme was from Sigma or prepared from human erythrocyte. Acetylcholine and other reagents and buffers were from Sigma. The assay solution consisted of 0.1 M phosphate buffer pH 8, 0.5 mM 5,5′-dithiobis (2-nitrobenzoic acid) (DTNB, Ellman's reagent), 0.01 unit acetylcholinesterase (Sigma Cat. No. C2888), and 0.5 mM acetylthiocholine iodide (ATCI) as the substrate. Test compounds were added to the assay solution and pre-incubated with the enzyme for 5 min at room temperature before addition of the substrate. […] Duplicate sampling was made for each sample. Test compound inhibition to enzyme activity was calculated relative to the positive control without presence of test compound. Negative controls were samples without enzyme.
Experimental procedures were described in the embodiments of this invention.

in vivo [3] = conditions: male, Sprague-Dawley, plasma, rat
Procedure: Pharmacokinetics (PK) measurement. […] A total of 6 male experimental SD rats, approximately 8 weeks of age (180-250 g body weight) were used. For intravenous bolus injection (IV), the animals were placed in a polycarbonate restraint device and dosed via the tail vein. For oral dose (PO), the animals were dosed via oral gavage. […] The plasma samples were extracted by protein precipitation using 4 volume of CH3CN containing fixed concentration of internal standard compound (IS). The concentrations of analyte in plasma were determined using a high performance liquid chromatography/mass spectrometry (HPLC/MS/MS) method (Shimadzu LC-10ADVP and a Leap autosampler, Thermo Hypersil C18, 50 mm×2.1 mm, Mobile phase A: 0.1% formic acid; B: MeCN, Elution rate: 500 μL/min, Column temperature: 25° C., Injection volume: 10 μL, reverse phase elution from 10% organic to 90% organic in 5 min, Applied Biosystems API3000 triple-quadrupole instrument with a Turbo Ions Spray interface). The data acquisition and data processing were done using Analyst 1.4 software.
Experimental animal used were male Sprague-Dawley rats from Shanghai Sino-British SIPPR/BK Lab Animal Ltd, approximately 8 weeks of age (180-250 g body weight).

in vivo [4] = conditions: male, Sprague-Dawley, plasma, rat, read-out: T½ (terminal half life) (converted)
[5] = IV (intravenous), read-out: F (bioavailability)
[6] = PO (oral), read-out: F (oral bioavailability)
[7] = SC (subcutaneous), read-out: F (bioavailability)

SMILES	LD50 at 7 day [1] [mg/kg]	IC50 [2] [nM]	bioavailability (in vivo [3]; [5]) [%]	bioavailability (in vivo [3]; [6]) [%]	bioavailability (in vivo [3]; [7]) [%]	half-life (in vivo [4]; IV (intravenous)) [h]	half-life (in vivo [4]; PO (oral)) [h]	half-life (in vivo [4]; SC (subcutaneous)) [h]
COc1cc2c(cc1OC)C(=O)C(CC1(F)CCN(Cc3ccccc3)CC1)C2 (stereo not drawn) [IV-4, 2-((1-benzyl-4-fluoropiperidin-4-yl)methyl)-5,6-dimethoxy-2,3-dihydro-1H-inden-1-one]	30	1.04	–	–	–	–	–	–
COc1cc2c(cc1OC)C(=O)C(F)(CC1(F)CCN(Cc3ccc(F)cc3)CC1)C2 (stereo not drawn) [IV-11, 2-fluoro-2-((4-fluoro-1-(4-fluorobenzyl)piperidin-4-yl)methyl)-5,6-dimethoxy-2,3-dihydro-1H-inden-1-one]	> 50	28.2	100	28.2	100	3.1	11.8	7.9
COc1cc2c(cc1OC)C(=O)C(F)(CC1(F)CCN(Cc3ccccc3)CC1)C2 (stereo not drawn) [IV-8, 2-((1-benzyl-4-fluoropiperidin-4-yl)methyl)-2-fluoro-5,6-dimethoxy-2,3-dihydro-1H-inden-1-one]	> 45	9.07	100	37.2	70.5	8.5	12.7	6.8
